SMILES strings stand for the structures.

Two compounds from PMC4858680, “A platinum-based hybrid drug design approach to circumvent acquired resistance to molecular targeted tyrosine kinase inhibitors” (Scientific Reports, 2016) can be followed below.

Assay [1] concerns the target T1, FLT3(N841I) (Homo sapiens, UniProt P36888, N841I).
T1 sequence (P36888 27-993 N841I): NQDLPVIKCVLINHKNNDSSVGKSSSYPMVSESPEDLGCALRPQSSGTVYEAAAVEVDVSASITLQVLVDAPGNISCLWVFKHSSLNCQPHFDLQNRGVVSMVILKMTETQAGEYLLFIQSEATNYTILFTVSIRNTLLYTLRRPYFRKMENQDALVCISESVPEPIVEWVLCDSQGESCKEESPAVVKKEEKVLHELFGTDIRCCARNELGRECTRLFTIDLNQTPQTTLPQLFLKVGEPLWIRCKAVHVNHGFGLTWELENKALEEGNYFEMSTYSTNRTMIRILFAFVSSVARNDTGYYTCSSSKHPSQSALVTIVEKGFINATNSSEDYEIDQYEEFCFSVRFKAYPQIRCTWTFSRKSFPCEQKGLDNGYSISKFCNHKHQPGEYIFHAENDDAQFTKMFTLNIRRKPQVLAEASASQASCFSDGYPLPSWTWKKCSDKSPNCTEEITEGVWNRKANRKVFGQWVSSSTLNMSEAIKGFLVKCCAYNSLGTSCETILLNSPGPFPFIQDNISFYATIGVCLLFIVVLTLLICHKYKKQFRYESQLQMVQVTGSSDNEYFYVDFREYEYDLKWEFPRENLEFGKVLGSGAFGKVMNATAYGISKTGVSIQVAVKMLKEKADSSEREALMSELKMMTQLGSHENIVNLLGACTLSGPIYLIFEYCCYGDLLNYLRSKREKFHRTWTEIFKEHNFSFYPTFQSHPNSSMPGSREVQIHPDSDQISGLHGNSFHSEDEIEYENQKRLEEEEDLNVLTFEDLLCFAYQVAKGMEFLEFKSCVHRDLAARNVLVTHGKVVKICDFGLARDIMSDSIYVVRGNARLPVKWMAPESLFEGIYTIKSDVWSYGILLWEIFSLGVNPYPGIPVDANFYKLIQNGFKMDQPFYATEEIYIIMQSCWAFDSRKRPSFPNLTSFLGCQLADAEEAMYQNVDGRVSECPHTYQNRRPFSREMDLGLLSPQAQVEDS
Nature of the assay: biochemical. The note with it: read-out: Percent control.

For assay [2], the target named is ABL1-nonphosphorylated (Homo sapiens, UniProt P00519). As to conditions: 10 μM.
Sequence of ABL1-nonphosphorylated (P00519 whole entry): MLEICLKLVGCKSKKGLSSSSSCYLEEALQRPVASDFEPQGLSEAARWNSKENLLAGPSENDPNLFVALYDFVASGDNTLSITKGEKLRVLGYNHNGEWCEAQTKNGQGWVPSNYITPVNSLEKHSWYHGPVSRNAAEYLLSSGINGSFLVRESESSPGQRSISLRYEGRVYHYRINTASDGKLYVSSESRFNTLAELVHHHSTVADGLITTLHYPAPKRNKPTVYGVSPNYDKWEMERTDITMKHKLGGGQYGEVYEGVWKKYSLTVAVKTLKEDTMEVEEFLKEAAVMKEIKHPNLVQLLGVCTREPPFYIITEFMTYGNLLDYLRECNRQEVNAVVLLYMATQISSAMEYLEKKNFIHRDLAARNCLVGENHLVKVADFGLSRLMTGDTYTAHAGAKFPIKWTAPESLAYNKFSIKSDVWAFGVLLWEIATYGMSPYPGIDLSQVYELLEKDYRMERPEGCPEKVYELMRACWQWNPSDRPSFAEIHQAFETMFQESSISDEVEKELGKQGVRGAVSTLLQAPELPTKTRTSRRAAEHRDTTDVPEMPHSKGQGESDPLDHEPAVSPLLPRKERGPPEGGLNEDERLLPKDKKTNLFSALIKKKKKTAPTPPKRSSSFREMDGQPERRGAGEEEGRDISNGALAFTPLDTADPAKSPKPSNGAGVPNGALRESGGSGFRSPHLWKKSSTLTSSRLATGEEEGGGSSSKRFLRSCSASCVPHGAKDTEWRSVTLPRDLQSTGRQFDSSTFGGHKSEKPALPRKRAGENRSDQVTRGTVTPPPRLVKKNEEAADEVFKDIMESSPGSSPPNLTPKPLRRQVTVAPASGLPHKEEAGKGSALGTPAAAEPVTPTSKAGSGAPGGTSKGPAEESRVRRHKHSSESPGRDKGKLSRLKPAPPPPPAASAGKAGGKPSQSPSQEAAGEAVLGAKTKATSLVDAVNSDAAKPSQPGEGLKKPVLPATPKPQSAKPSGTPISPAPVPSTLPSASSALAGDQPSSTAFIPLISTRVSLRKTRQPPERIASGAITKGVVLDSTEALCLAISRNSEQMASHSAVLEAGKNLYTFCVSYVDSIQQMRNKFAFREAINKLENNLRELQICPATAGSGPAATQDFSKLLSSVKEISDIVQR

For `C#Cc1cccc(Nc2ncnc3cc(OCCOC)c(OCCOC)cc23)c1` [Erlotinib], in assay [1], the remaining activity at 10 µM was found to be 4.8%.
Compound `C#Cc1cccc(Nc2c3cc(OCCOC)c(OCCOC)cc3nc[n+]2[Pt@SP2-2]([NH3+])([NH3+])[Cl])c1` [2a, cisplatin-erlotinib] displayed a Percent control in assay [2] of 25%.
